Assay results published in ChEMBL document CHEMBL1136755, “Mapping property distributions of molecular surfaces: algorithm and evaluation of a novel 3D quantitative structure-activity relationship technique” (J Med Chem, 2003).

Tests used:
[1] = molecular target: T1, Muscarinic acetylcholine receptor M2 (Sus scrofa, UniProt P06199); test: Ability to dissociate radioligand [3H]NMS from muscarinic acetylcholine receptor M2 of porcine heart
T1 sequence (P06199 whole entry): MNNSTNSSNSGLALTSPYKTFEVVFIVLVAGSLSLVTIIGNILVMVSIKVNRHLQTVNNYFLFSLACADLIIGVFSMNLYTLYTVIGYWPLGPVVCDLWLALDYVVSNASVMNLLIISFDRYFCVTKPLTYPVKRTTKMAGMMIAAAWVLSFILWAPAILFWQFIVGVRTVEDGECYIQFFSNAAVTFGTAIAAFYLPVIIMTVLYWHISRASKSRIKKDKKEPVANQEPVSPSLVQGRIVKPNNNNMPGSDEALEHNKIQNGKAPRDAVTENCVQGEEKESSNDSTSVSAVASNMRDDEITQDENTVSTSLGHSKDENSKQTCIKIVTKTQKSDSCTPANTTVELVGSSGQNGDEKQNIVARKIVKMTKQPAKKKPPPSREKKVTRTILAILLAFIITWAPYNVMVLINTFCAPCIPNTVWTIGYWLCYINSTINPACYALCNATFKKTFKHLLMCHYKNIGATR

Oryctolagus cuniculus = test: Eye irritation potential accessed using Draize in vivo rabbit eye irritation test; format: functional
[2] = molecular target: T2, Corticosteroid-binding globulin (Homo sapiens) (UniProt P08185)
T2 sequence (whole entry): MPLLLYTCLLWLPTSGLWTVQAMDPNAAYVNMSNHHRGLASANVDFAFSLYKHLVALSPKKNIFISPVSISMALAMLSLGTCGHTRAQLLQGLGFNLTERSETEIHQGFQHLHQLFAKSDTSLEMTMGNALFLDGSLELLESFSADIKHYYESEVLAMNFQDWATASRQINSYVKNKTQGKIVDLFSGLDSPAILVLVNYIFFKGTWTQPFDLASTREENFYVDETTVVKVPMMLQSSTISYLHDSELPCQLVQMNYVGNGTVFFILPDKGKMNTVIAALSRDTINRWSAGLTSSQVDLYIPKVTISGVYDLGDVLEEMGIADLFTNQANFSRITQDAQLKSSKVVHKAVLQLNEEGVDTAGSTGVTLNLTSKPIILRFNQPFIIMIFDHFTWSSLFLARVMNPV
Description: Binding affinity towards corticosteroid-binding globulin (CBG)

[3] = molecular target: T2, Corticosteroid-binding globulin (Homo sapiens); remark: listed apart in the source
Description: Binding affinity towards corticosteroid binding globulin (CBG)

C[N+](C)(CCCCCCC[N+](C)(C)CCCN1C(=O)[C@H]2CC=CC[C@H]2C1=O)CCCN1C(=O)[C@H]2CC=CC[C@H]2C1=O
EC50 [1]: 2.2 µM

C[N+](C)(CCCCCC[N+](C)(C)CCCN1C(=O)c2ccccc2C1=O)CCCN1C(=O)CCC1=O
EC50 [1]: 9.77 µM

CCCCCCCCCCCC [DODECANE]
MES (Oryctolagus cuniculus): 0.45

C=CCCCCCCC=C
MES (Oryctolagus cuniculus): 0.37

CC(=O)[C@@]1(O)[C@H](O)C[C@H]2[C@@H]3CCC4=CC(=O)CC[C@]4(C)[C@H]3CC[C@@]21C
Log K [2]: 6.25

C/C1=C/C=C\C(C)CCC1 (stereo not given)
MES (Oryctolagus cuniculus): 0.44

Cc1ccccc1 [TOLUENE]
MES (Oryctolagus cuniculus): 0.96

CCOC(=O)C(C)C(C)=O (stereo not given)
MES (Oryctolagus cuniculus): 2.55

C1=C\CCCCCC/1 [CYCLOOCTENE]
MES (Oryctolagus cuniculus): 0.43

CCCCCC[N+](C)(C)CCCN1C(=O)c2ccccc2C1=O
EC50 [1]: 54 µM

C[C@]12CCC(=O)C=C1CC[C@@H]1[C@@H]2CC[C@]2(C)C(=O)CC[C@@H]12
Log K [2]: 5.76

C[C@@H]1C(=O)N(CCC[N+](C)(C)CCCCCCC[N+](C)(C)CCCN2C(=O)[C@H](C)[C@@H](C)C2=O)C(=O)[C@H]1C
EC50 [1]: 12.1 µM

CC(=O)[C@@]1(O)CC[C@H]2[C@@H]3CCC4=CC(=O)CC[C@]4(C)[C@H]3CC[C@@]21C
Log K [2]: 7.74

C[C@]12C[C@@H](O)[C@H]3[C@@H](CCC4=CC(=O)CC[C@@]43C)[C@@H]1CC[C@@H]2C(=O)CO
Log K [2]: 7.2

C[C@]12CC[C@H](O)CC1=CC[C@@H]1[C@@H]2CC[C@]2(C)C(=O)CC[C@@H]12
Log K [2]: 5

Cc1ccc(C)cc1 [P-XYLENE]
MES (Oryctolagus cuniculus): 1.1

CCC(C)c1ccccc1 (stereo not given)
MES (Oryctolagus cuniculus): 0.31

C=CCCC=C
MES (Oryctolagus cuniculus): 0.55

CCOC(C)=O [ETHYL ACETATE]
MES (Oryctolagus cuniculus): 1.47

C[C@]12CC[C@@H]3c4ccc(O)cc4CC[C@H]3[C@@H]1CC[C@@H]2O
Log K [2]: 5

CC1CCCC1 [METHYLCYCLOPENTANE]
MES (Oryctolagus cuniculus): 0.41

CC(=O)[C@H]1CC[C@H]2[C@@H]3CC=C4C[C@@H](O)CC[C@]4(C)[C@H]3CC[C@]12C
Log K [2]: 5.25

N#CCCN(CCCCCCN(CCC#N)CCCN1C(=O)c2ccccc2C1=O)CCCN1C(=O)c2ccccc2C1=O
EC50 [1]: 0.74 µM

CCCCCC(C)=O
MES (Oryctolagus cuniculus): 2.26

CC(=O)[C@H]1CC[C@H]2[C@@H]3CCC4=CC(=O)CC[C@]4(C)[C@H]3C(=O)C[C@]12C
Log K [2]: 6.78

C[C@@H]1C[C@@]2(C)C(=CC1=O)CC[C@H]1[C@@H]3CC[C@](O)(C(=O)CO)[C@@]3(C)C[C@H](O)[C@@]12F
Log K [2]: 5.8

CC(O)CO (stereo not given) [PROPYLENE GLYCOL]
MES (Oryctolagus cuniculus): 0.1

C[N+](C)(CCCCCCC[N+](C)(C)CCCN1C(=O)[C@@H]2CCCC[C@H]2C1=O)CCCN1C(=O)[C@H]2CCCC[C@@H]2C1=O
EC50 [1]: 0.8 µM

Cc1ccc2c(c1)C(=O)N(CCCN(CCCCCCN(CCCN1C(=O)c3ccc(C)cc3C1=O)C1CCCCC1)C1CCCCC1)C2=O
EC50 [1]: 0.06 µM

CC(C)O [ISOPROPYL ALCOHOL]
MES (Oryctolagus cuniculus): 2.34

COc1ccc(CCN(C)CCCC(C#N)(c2ccc(OC)c(OC)c2)C(C)C)cc1OC (stereo not given)
EC50 [1]: 31 µM

CC(=O)OCC(=O)[C@@]1(O)CC[C@H]2[C@@H]3CCC4=CC(=O)CC[C@]4(C)[C@H]3[C@@H](O)C[C@@]21C
Log K [2]: 7.55

CC(C)c1cccc(C(C)C)c1
MES (Oryctolagus cuniculus): 0.38

CCCCC(CC)CO (stereo not given)
MES (Oryctolagus cuniculus): 7.82

CCCCCCO [1-HEXANOL]
MES (Oryctolagus cuniculus): 8.13

CCCCOC(C)=O [ACETIC ACID BUTYL ESTER]
MES (Oryctolagus cuniculus): 0.99

CCCCOCCO [BUTOXYETHANOL]
MES (Oryctolagus cuniculus): 8.99

C[C@]12CC[C@@H]3c4ccc(O)cc4CC[C@H]3[C@@H]1C[C@@H](O)[C@@H]2O
Log K [2]: 5

C[N+](C)(CCCCCCO)CCCN1C(=O)c2ccccc2C1=O
EC50 [1]: 24 µM

C[C@]12CC[C@H]3[C@@H](CCC4=CC(=O)CC[C@@]43C)[C@@H]1CC[C@@H]2C(=O)CO
Log K [2]: 7.65

CC(=O)[C@H]1CC[C@H]2[C@@H]3CCC4=CC(=O)CC[C@]4(C)[C@H]3CC[C@]12C
Log K [2]: 7.38

C[N+](C)(CCCCCC[N+](C)(C)CCCN1c2ccccc2C(=O)NC1c1ccccc1)CCCN1c2ccccc2C(=O)NC1c1ccccc1 (stereo not given)
EC50 [1]: 0.741 µM

CCOCC(=O)O
MES (Oryctolagus cuniculus): 2.03

C[N+](C)(CCCCCC[N+](C)(C)CCCN1C(=O)c2cc3ccccc3cc2C1=O)CCCN1C(=O)c2ccccc2C1=O
EC50 [1]: 0.148 µM

CC(=O)[C@H]1CC[C@H]2[C@@H]3CCC4=CC(=O)CC[C@@H]4[C@H]3CC[C@]12C
Log K [2]: 6.82

C[C@]12CCC(=O)C=C1CC[C@@H]1[C@@H]2[C@@H](O)C[C@]2(C=O)[C@@H](C(=O)CO)CC[C@@H]12
Log K [3]: 6.28

C[C@]12CC[C@H](O)C[C@@H]1CC[C@@H]1[C@@H]2CC[C@]2(C)[C@@H](O)CC[C@@H]12
Log K [2]: 5

CCCC(C)CC (stereo not given)
MES (Oryctolagus cuniculus): 0.1

CC(=O)[C@@]1(O)CC[C@H]2[C@@H]3CC[C@@H]4C[C@H](O)CC[C@]4(C)[C@H]3CC[C@@]21C
Log K [2]: 5

CCOC(=O)C(C)(C)C
MES (Oryctolagus cuniculus): 0.63

CCC(C)=O [BUTANONE]
MES (Oryctolagus cuniculus): 4.48

CC(=O)[C@H]1[C@H](C)C[C@H]2[C@@H]3CCC4=CC(=O)CC[C@]4(C)[C@H]3CC[C@@]21C
Log K [2]: 7.12

C[N+](C)(CCCCCCC[N+](C)(C)CCCN1C(=O)c2ccccc2C1=O)CCCN1C(=O)c2ccccc2C1=O
EC50 [1]: 0.389 µM

COC(C)=O [ACETIC ACID METHYL ESTER]
MES (Oryctolagus cuniculus): 3.14

CCCC(C)C
MES (Oryctolagus cuniculus): 0.26

O=C1c2ccccc2C(=O)N1CCCN(CCCCCCN(CCCN1C(=O)c2ccccc2C1=O)C1CCCCC1)C1CCCCC1
EC50 [1]: 0.045 µM

C[N+](C)(CCCCCC[N+](C)(C)CCCN1C(=O)c2cccc3cccc(c23)C1=O)CCCN1C(=O)c2ccccc2C1=O
EC50 [1]: 0.0631 µM

OC1CCCCC1 [CYCLOHEXANOL]
MES (Oryctolagus cuniculus): 8.29

CC(C)CO [ISOBUTANOL]
MES (Oryctolagus cuniculus): 6.44

C=Cc1ccccc1 [STYRENE]
MES (Oryctolagus cuniculus): 0.77

C[C@]12CCC(=O)C=C1CC[C@@H]1[C@@H]2CC[C@@]2(C)[C@H]1CC[C@]2(O)C(=O)CO
Log K [2]: 7.88

CCCCO [BUTYL ALCOHOL]
MES (Oryctolagus cuniculus): 5.47

Nc1ccc(F)cc1
MES (Oryctolagus cuniculus): 6.62

OCC(O)CO [GLYCERIN]
MES (Oryctolagus cuniculus): 0.12

C[C@]12CC[C@H]3[C@@H](CCC4=CC(=O)CC[C@@]43C)[C@@H]1CC[C@@H]2O
Log K [2]: 6.72

C[N+](C)(CCCCCCC[N+](C)(C)CCCN1C(=O)CCC1=O)CCCN1C(=O)CCC1=O
EC50 [1]: 151 µM

O=C1c2ccccc2C(=O)N1CCCN(CCCCCCN(CCCc1ccccc1)CCCN1C(=O)c2ccccc2C1=O)CCCc1ccccc1
EC50 [1]: 0.991 µM

CC1CC(=O)N(CCC[N+](C)(C)CCCCCCC[N+](C)(C)CCCN2C(=O)CC(C)C2=O)C1=O (stereo not given)
EC50 [1]: 32 µM

CCc1cccc(C)c1
MES (Oryctolagus cuniculus): 0.32

O=[N+]([O-])c1ccc(F)cc1F
MES (Oryctolagus cuniculus): 0.4

C[N+](C)(CCCCCC[N+](C)(C)CCCN1C(=O)CC2c3ccccc3C(C1=O)c1ccccc12)CCCN1C(=O)c2ccccc2C1=O
EC50 [1]: 0.398 µM

C[C@]12C[C@H](O)[C@H]3[C@@H](CCC4=CC(=O)CC[C@@]43C)[C@@H]1CC[C@@H]2C(=O)CO
Log K [2]: 7.88

C[C@]12C=CC(=O)C=C1CC[C@@H]1[C@@H]2[C@@H](O)C[C@@]2(C)[C@H]1CC[C@]2(O)C(=O)CO
Log K [2]: 7.51

C[N+](C)(CCCCCCC[N+](C)(C)CCCN1C(=O)[C@H]2CCCC[C@H]2C1=O)CCCN1C(=O)[C@H]2CCCC[C@H]2C1=O
EC50 [1]: 4.5 µM

CCC(C)(C)C(=O)O [DIMEBUTIC ACID]
MES (Oryctolagus cuniculus): 5.59

CC[N+](C)(C)CCCCCC[N+](C)(C)CCCN1C(=O)c2ccccc2C1=O
EC50 [1]: 10 µM

O=C1c2ccccc2C(=O)N1CCCCBr
MES (Oryctolagus cuniculus): 0.19

C[N+](C)(CCCCCC[N+](C)(C)CCCN1C(=O)c2cccnc2C1=O)CCCN1C(=O)c2ccccc2C1=O
EC50 [1]: 2.34 µM

CCOC(=O)CCCCCC[N+](C)(C)CCCN1C(=O)c2ccccc2C1=O
EC50 [1]: 111 µM

COC(=O)C(C)(C)C
MES (Oryctolagus cuniculus): 0.36

C[C@]12CCC(=O)C=C1CC[C@@H]1[C@@H]2C(=O)C[C@@]2(C)[C@H]1CC[C@]2(O)C(=O)CO
Log K [2]: 6.89

CC(C)=O [ACETONE]
MES (Oryctolagus cuniculus): 4.83

CC(=O)CC(C)C [METHYL ISOBUTYL KETONE]
MES (Oryctolagus cuniculus): 0.59

C[C@]12CC[C@H]3[C@@H](CCC4=CC(=O)CC[C@@H]43)[C@@H]1CC[C@@H]2O
Log K [2]: 6.14

C[C@]12CCC(=O)C=C1CC[C@@H]1[C@@H]2[C@@H](O)C[C@@]2(C)[C@H]1CC[C@]2(O)C(=O)CO
Log K [2]: 7.88
